Results taken from US20080311657A1, “Killing Human Lymphoma and Leukemia Cancer Cells and Tcr-Activated Normal Human Cells By Dopamine D1r Agonists” (priority 2005, published 2008).

What was measured:
Format in all cases: cell-based
[1] = test system: Human Burkitt's B-lymphoma cells (Daudi); test: Number of living cells counted by flow cytometry (FACSort) after D1R agonist; settings: for Cell death by number of living cells (FIGS. 16-18), in words: 10^−3M-10^−6M, 3 days; for No. of Cells: 1 × 10^−4M; for No. of Cells / Killing, in words (Table 5): 1 hour; for Killing, in words (Table 5): 10^−4 M
Method: (§1) Human Burkitt's B-lymphoma cells (Daudi) were seeded in 96 well plates (0.5 ml per well of 0.5 million cells/ml) and A 77636 hydrochloride was added and diluted 1:00 into the wells at starting concentrations of 10^−1M-10^−4M, so that the final concentration range tested was 10^−3M-10^−6M. […] Then, the number of living cells was evaluated by flow cytometry (the cells were counted by FACsort for a fixed time length of 1 min, in which 100 microliter of each sample was tested).
as §1, with “68930” for “77636”
[…] Then, the number of living cells was evaluated by flow cytometry (the cells were counted by FACsort for a fixed time length of 1 min, in which 100 microliter of each sample was tested).
(§2) Cell viability was tested afterwards.
(§3) The effect of dopamine itself (that can of course activate all its D1R-5 receptors) was also tested. All of these molecules were tested at a similar concentration (10^−4 M). […] The specificity and restriction of the effect to the D1R is also seen in Tables 7 and 8.

[2] = test system: Human Burkitt's B-cell lymphoma (Raji) cells; test: as above; settings: 10^−3M-10^−6M, 3 days
Method: (§4) Afterwards, the microtiter plates were placed in an incubator (37° C., humidified incubator, 5% CO2) for 3 days. Then, the number of living cells was evaluated by flow cytometry (the cells were counted by FACsort for a fixed time length of 1 min, in which 100 microliter of each sample was tested).
as §2

[3] = test system: resting normal human T-cells; test: as above; settings: 10^−3M-10^−6M, 3 days
Method: as §4
FIGS. 31A and B are graphs showing that A 77636 hydrochloride kills much more TCR-activated (FIG. 31B) than resting normal (FIG. 31A) human T-cells. […] The cells were then transferred to the incubator for 72 hr incubation. At the end of the 72 hr incubation, the number of living cells in each well was evaluated by flow cytometry (the cells were counted by FACsort for a fixed time length of 1 min, in which 100 microliter of each sample was tested).
as §2

[4] = test system: Human chronic myelogenous leukemia cells (CML) (K-562); test: as above; settings: for Cell death by number of living cells (FIGS. 22-24), in words: 10^−3M-10^−6M, 3 days; for No. of Cells: 1 × 10^−4M; for No. of Cells / Killing, in words (Table 6): 1 hour; for Killing, in words (Table 6): 10^−4 M
Method: (§5) Human chronic myelogenous leukemia cells (CML) (K-562) were seeded in 96 well plates (0.5 ml per well of 0.5 million cells/ml) and A 77636 hydrochloride was added and diluted 1:00 into the wells at starting concentrations of 10^−1M-10^−4M, so that the final concentration range tested was 10^−3M-10^−6M. Afterwards, the microtiter plates were placed in an incubator (37° C., humidified incubator, 5% CO2) for 3 days. Then, the number of living cells was evaluated by flow cytometry (the cells were counted by FACsort for a fixed time length of 1 min, in which 100 microliter of each sample was tested).
as §5, with “68930” for “77636”
as §5, with “SKF 38393 hydrobromide” for “A 77636 hydrochloride”
(§6) Human chronic myelogenous leukemia cells (CML) (K-562) were seeded in 96 well plates (0.5 ml per well of 0.5 million cells/ml) and A 77636 hydrochloride was added and diluted 1:00 into the wells, at a fixed starting concentration of 10^−2M, so that the final concentration tested was 10^−4M. The experiment was designed to test the effect of exposing the cells to the D1R agonist for 1 min, 15 min, 1 hr or 72 hr. Thus, 1 min, or 15 min or 1 hr after the addition of the D1R agonist, the corresponding cells were transferred into tubes, centrifuged (1000 rpm for 10 min), and the supernatant was removed. […] Thus, its medium was not replaced, and these cells and remained as such in the incubator for 72 hr. At the end of the 72 hr incubation, the number of living cells was evaluated by flow cytometry (the cells were counted by FACsort for a fixed time length of 1 min, in which 100 microliter of each sample was tested).
as §2
(§7) For this purpose, the Jurkat T-cell leukemia line, the HuT-78 human T-lymphoma (cutaneous “Sezary” T-lymphoma) line, and the K-562 human Chronic-Myeloid Leukemia (CML) and Daudi Human B-lymphoma (Burkitt's lymphoma) lines were seeded in tissue culture wells (0.5 million cells/0.5 ml/well).
(§8) Cell survival/death was evaluated 3 days later by counting the number of living cells, using flow cytometry.
as §3

[5] = test system: Human cutaneous Sezary T-lymphoma cells (HuT-78); test: as above; settings: 10^−3M-10^−6M, 3 days
Method: as §5, with “cutaneous Sezary T-lymphoma” for “chronic myelogenous leukemia”, “(HUT-78)” for “(CML) (K-562)”
as §5, with “cutaneous Sezary T-lymphoma” for “chronic myelogenous leukemia”, “(HUT-78)” for “(CML) (K-562)”, “68930” for “77636”
as §5, with “cutaneous Sezary T-lymphoma” for “chronic myelogenous leukemia”, “(HUT-78)” for “(CML) (K-562)”, “SKF 38393 hydrobromide” for “A 77636 hydrochloride”
Cell viability was tested afterwards. […]
as §8

[6] = test system: Human T-cell leukemia (Jurkat) cells; test: as above; settings: 10^−3M-10^−6M, 3 days
Method: as §4, with “tested). Of note, A 77636 hydrochloride is an orally-active D1R agonist, according to the manufacturer (Tocris).” for “tested).”
as §4
as §6, with “The” for “Human chronic myelogenous leukemia cells (CML) (K-562) were seeded in 96 well plates (0.5 ml per well of 0.5 million cells/ml) and A 77636 hydrochloride was added and diluted 1:00 into the wells, at a fixed starting concentration of 10^−2M, so that the final concentration tested was 10^−4M. The”, “min);” for “min),”
as §2, §7, §8

[7] = test system: Human Sezary T-Cell Lymphoma (HuT 78) Cells; test: Cell number, necrosis and apoptosis by Annexin V/PI flow cytometry; settings: 1 × 10^−4M, exposed for 1 hr; for % Necrotic Cells: Annexin V+ PI+; for % Apoptotic Cells: Annexin V+ PI−
Method: (§9) Measurement of cell death by flow cytometry and detection of phosphatidyl serine was performed using the IQ Products kit (R&D systems), according to the manufacturers instructions.
(§10) In detail: The Phosphatidyl Serine Detection kit provides a rapid and reliable method for the detection of apoptosis by flow cytometry. This method enables detection at the single-cell level, and also allows the distinction between apoptosis and necrosis.
(§11) During the early stages of apoptosis, phosphatidyl serine (PS) becomes exposed on the outside of the cell membrane. This early stage of apoptosis can be specifically detected by PS binding proteins (Annexin V).
(§12) During the early stages of apoptosis, the cell membrane is intact and the cells exclude propidium iodide (PI). Later, during the apoptosis process, the membrane becomes porous and PI becomes associated with DNA. The uptake of PI is an indication of necrosis.
as §3
(§13) Cancer death induced by selective D1R agonists occurs via necrosis. To study the mechanism by which the cancer cells die, due to their incubation with DR1 agonists, the phosphatidyl serine detection kit was used. This kit provides a rapid and reliable method for the detection of apoptosis by flow cytometry, enables detection at the single-cell level, and also allows the distinction between apoptosis and necrosis.
(§14) During the early stages of apoptosis, phosphatidyl serine (PS) becomes exposed on the outside of the cell membrane. This early stage of apoptosis can be specifically detected by PS binding proteins (Annexin V). During the early stages of apoptosis, the cell membrane is intact and the cells exclude propidium iodide (PI). Later, during the apoptosis process, the membrane becomes porous and PI becomes associated with DNA. The uptake of PI is an indication of necrosis. Thus, Annexin V^+ PI^− are considered cells that are undergoing apoptosis, while Annexin V^+ PI^+ are considered cells that are undergoing necrosis. Live cells are Annexin V^− PI^−.

[8] = test system: Human T-Cell Leukemia (Jurat) Cells; test: as above; settings: 1 × 10^−4M, exposed for 1 hr; for % Necrotic Cells: Annexin V+ PI+; for % Apoptotic Cells: Annexin V+ PI−
Method: as §9, §10, §11, §12, §3, §13, §14

| SMILES | Cell death by number of living cells (FIGS. 16-18), in words [1] | Cell death by number of living cells (FIGS. 19-21), in words [2] | Killing effect by number of living cells (FIGS. 25-27), in words [3] | Cell death by number of living cells (FIGS. 22-24), in words [4] | Cell death by number of living cells (FIGS. 13-15), in words [5] | Cell death by number of living cells (FIGS. 10-12), in words [6] | No. of Cells [1] | Killing, in words (Table 5) [1] | No. of Cells [4] | Killing, in words (Table 6) [4] | No. of Cells [7] | % Necrotic Cells [7] [%] | % Apoptotic Cells [7] [%] | No. of Cells [8] | % Necrotic Cells [8] [%] | % Apoptotic Cells [8] [%] |
| --- | --- | --- | --- | --- | --- | --- | --- | --- | --- | --- | --- | --- | --- | --- | --- | --- |
| Cl.NC[C@@H]1O[C@H](c2ccccc2)Cc2c1ccc(O)c2O (racemic) [A 68930 hydrochloride, cis-(±)-1-(aminomethyl)-3,4-dihydro-3-phenyl-1H-2-benzopyran-5,6-diol hydrochloride] | induces marked cell death | induces marked cell death | significantly milder killing effect | induces marked cell death | induces marked cell death | induces marked cell death |  |  |  |  |  |  |  |  |  |  |
| CCCN(CCC)C1CCc2ccc(O)cc2C1 (stereo not drawn) [D3R Agonist, 7-Hydroxy-DPAT] |  |  |  |  |  |  | 18,330 | no such effect | 21,960 | no such effect | 18,975 | 21.40 | 14.67 | 9,300 | 10.27 | 1.68 |
| CCCN1CCC[C@@H]2Cc3n[nH]cc3C[C@H]21 [D2R Agonist, Quinpirole] |  |  |  |  |  |  | 20,805 | no such effect | 27,360 | no such effect | 23,880 | 21.97 | 12.00 | 7,395 | 7.65 | 1.38 |
| NCCc1ccc(O)c(O)c1 [Dopamine] |  |  |  |  |  |  | 5,325 | killed the B-lymphoma cells | 24,480 | not the CML | 16,395 | 39.80 | 19.07 | 4,545 | 42.84 | 7.06 |
| Br.Oc1cc2c(cc1O)C(c1ccccc1)CNCC2 (racemic) [SKF 38393 hydrobromide, (±)-1-phenyl-2,3,4,5-tetrahydro-(1H)-3-benzazepine-7,8-diol hydrobromide] | induces marked cell death | induces marked cell death | significantly milder killing effect | induces marked cell death | induces marked cell death | induces marked cell death |  |  |  |  |  |  |  |  |  |  |
